Results reported in patent US8536168B2 (Novartis AG, priority 2007, dated 2013).
Read-outs that look alike come from different tables or passages of the source.

Columns and labels:
[1] = molecular target: human Smoothened receptor (Homo sapiens, UniProt Q99835); test: Smo binding assay, displacement of radio-labeled smoothened agonist, filter binding format (human); conditions: displacement of small molecule agonist of Smoothened, read-out: Human Smo bdg., IC50
Description: A Smo binding assay was developed using radio-labeled smoothened agonist for compound competition. Table 9 lists the IC50 for displacement of a small molecule agonist of Smoothened determined in a filter binding format for the mouse and human Smoothened receptor.

[2] = molecular target: mouse Smoothened receptor (Mus musculus, UniProt P56726); test: Smo binding assay, displacement of radio-labeled smoothened agonist, filter binding format (mouse); conditions: displacement of small molecule agonist of Smoothened, read-out: Mouse Smo bdg., IC50
Chain of mouse Smoothened receptor (P56726 33-793): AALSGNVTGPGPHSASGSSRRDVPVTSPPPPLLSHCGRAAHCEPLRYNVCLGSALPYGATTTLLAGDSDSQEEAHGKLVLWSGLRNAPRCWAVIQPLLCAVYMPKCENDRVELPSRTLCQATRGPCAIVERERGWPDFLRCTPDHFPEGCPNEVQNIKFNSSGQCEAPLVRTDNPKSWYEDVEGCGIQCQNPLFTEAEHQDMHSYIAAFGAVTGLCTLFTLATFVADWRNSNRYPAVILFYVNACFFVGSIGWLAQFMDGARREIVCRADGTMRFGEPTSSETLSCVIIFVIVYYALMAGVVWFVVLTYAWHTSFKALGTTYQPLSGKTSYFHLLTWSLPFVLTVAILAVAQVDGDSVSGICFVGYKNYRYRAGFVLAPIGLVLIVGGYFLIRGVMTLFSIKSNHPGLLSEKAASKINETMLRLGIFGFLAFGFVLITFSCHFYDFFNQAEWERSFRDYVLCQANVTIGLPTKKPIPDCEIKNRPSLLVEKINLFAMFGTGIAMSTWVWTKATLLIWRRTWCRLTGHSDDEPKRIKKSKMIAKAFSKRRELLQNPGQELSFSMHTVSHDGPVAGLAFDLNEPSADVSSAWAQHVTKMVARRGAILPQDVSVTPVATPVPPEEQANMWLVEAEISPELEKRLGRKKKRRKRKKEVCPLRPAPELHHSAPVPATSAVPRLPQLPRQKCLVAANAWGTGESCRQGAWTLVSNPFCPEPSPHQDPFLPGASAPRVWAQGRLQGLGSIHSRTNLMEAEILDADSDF
Description: A Smo binding assay was developed using radio-labeled smoothened agonist for compound competition.

Gli-luciferase activity = test: Reporter gene assay (RGA) in TMHh12 cells, antagonism of Gli-luciferase activity in the presence of a Smo agonist; format: cell-based
Procedure: Activity of the compounds was evaluated using a reporter gene assay (RGA) in TMHh12 cells.

[3] = 25 nM small molecule Smo agonist, read-out: RGA (25 nM Smo agonist) IC50
[4] = read-out: RGA (1 nM Smo agonist) IC50, 1 nM small molecule Smo agonist

Chain of human Smoothened receptor (Q99835 28-787): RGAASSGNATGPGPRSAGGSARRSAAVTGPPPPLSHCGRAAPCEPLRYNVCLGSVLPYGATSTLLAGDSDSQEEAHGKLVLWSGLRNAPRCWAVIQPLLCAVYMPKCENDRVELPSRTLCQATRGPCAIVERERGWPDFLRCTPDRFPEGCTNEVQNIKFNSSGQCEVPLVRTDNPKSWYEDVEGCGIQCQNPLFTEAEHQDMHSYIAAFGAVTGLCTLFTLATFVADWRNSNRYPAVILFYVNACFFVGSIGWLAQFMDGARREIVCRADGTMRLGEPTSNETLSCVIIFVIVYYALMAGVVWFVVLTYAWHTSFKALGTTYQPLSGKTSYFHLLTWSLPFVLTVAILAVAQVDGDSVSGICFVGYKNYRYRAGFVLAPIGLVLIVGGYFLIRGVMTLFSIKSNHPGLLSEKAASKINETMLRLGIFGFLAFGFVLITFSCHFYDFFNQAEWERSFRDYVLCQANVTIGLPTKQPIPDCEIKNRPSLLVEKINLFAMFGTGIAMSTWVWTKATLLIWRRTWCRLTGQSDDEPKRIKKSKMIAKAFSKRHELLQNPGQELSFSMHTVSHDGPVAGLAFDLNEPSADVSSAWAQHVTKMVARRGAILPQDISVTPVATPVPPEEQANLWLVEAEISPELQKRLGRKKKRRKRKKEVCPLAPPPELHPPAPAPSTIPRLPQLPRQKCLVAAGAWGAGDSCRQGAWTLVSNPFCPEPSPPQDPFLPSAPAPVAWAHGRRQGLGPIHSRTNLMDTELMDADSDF

| Structure (SMILES) | IC50 [1] [nM] | IC50 [2] [nM] | IC50 (Gli-luciferase activity; [3]) [nM] | IC50 (Gli-luciferase activity; [4]) [nM] |
| --- | --- | --- | --- | --- |
| OC(c1ccc(N2CCN(c3nnc(Cc4ccccc4)c4ccccc34)CC2)nc1)C1CC1 (stereo not shown) [Example 219] | < 100 | < 100 | 100 to 1000 | 100 to 1000 |
| CC(C)C(O)c1ccc(N2CCN(c3nnc(Cc4ccccc4)c4ccccc34)CC2)nc1 (stereo not shown) [Example 220] | < 100 | < 100 | < 100 | < 100 |
| OC(c1ccc(N2CCN(c3nnc(Cc4ccccc4)c4ccccc34)CC2)nc1)C1CCCC1 (stereo not shown) [Example 221] | < 100 | < 100 | 100 to 1000 | < 100 |
| c1ccc(Cc2nnc(N3CCN(c4ccc(CN5CCOCC5)cn4)CC3)c3ccccc23)cc1 [Example 222, 1-Benzyl-4-[4-(5-morpholin-4-ylmethyl-pyridin-2-yl)-piperazin-1-yl]-phthalazine] | < 100 | < 100 | < 100 | < 100 |
| OC1CCN(Cc2ccc(N3CCN(c4nnc(Cc5ccccc5)c5ccccc45)CC3)nc2)C1 (stereo not shown) [Example 223] | 100 to 1000 | < 100 | 100 to 1000 | < 100 |
| c1ccc(Cc2nnc(N3CCN(c4ccc(CNC5CCOCC5)cn4)CC3)c3ccccc23)cc1 [Example 225] | 100 to 1000 | 100 to 1000 | 100 to 1000 | < 100 |
| CN(Cc1ccc(N2CCN(c3nnc(Cc4ccccc4)c4ccccc34)CC2)nc1)C1CCOCC1 [Example 226] | 100 to 1000 | < 100 | 100 to 1000 | < 100 |
| FC1CCN(Cc2ccc(N3CCN(c4nnc(Cc5ccccc5)c5ccccc45)CC3)nc2)CC1 [Example 227] | 100 to 1000 | < 100 | 100 to 1000 | < 100 |
| FC1(F)CCN(Cc2ccc(N3CCN(c4nnc(Cc5ccccc5)c5ccccc45)CC3)nc2)CC1 [Example 228] | < 100 | < 100 | 100 to 1000 | 100 to 1000 |
| FC1(F)CN(Cc2ccc(N3CCN(c4nnc(Cc5ccccc5)c5ccccc45)CC3)nc2)C1 [Example 229] | < 100 | < 100 | 100 to 1000 | 100 to 1000 |
| c1ccc(Cc2nnc(N3CCN(c4ccc(CNC5COC5)cn4)CC3)c3ccccc23)cc1 [Example 230] | 100 to 1000 | 100 to 1000 | 100 to 1000 | < 100 |
| c1ccc(Cc2nnc(N3CCN(c4ccc(CN(C5COC5)C5COC5)cn4)CC3)c3ccccc23)cc1 [Example 231] | < 100 | < 100 | < 100 | < 100 |
| CN(C)C(=O)Nc1ccc(N2CCN(c3nnc(Cc4ccccc4)c4ccccc34)CC2)nc1 [Example 238, 3-{6-[4-(4-Benzyl-phthalazin-1-yl)-piperazin-1-yl]-pyridin-3-yl}-1,1-dimethyl-urea] | 100 to 1000 | 100 to 1000 | 100 to 1000 | < 100 |
| COC(=O)Nc1ccc(N2CCN(c3nnc(Cc4ccccc4)c4ccccc34)CC2)nc1 [Example 239, {6-[4-(4-Benzyl-phthalazin-1-yl)-piperazin-1-yl]-pyridin-3-yl}-carbamic acid methyl ester] | 100 to 1000 | < 100 | 100 to 1000 | < 100 |
| FC(F)(F)c1ccc(N2CCN(c3nnc(Cc4ccccc4)c4c3C=CCC4)CC2)nc1 [Example 240, 4-Benzyl-1-(4-(5-(trifluoromethyl)pyridin-2-yl)piperazin-1-yl)-5,6-dihydrophthalazine] | < 100 | < 100 | 100 to 1000 | 100 to 1000 |
| Cc1c(Cc2ccccc2)nnc(N2CCN(c3ccc(C(F)(F)F)cn3)CC2)c1CNCc1ccccc1 [Example 241, N-benzyl-1-(6-benzyl-5-methyl-3-(4-(5-(trifluoromethyl)pyridin-2-yl)piperazin-1-yl)pyridazin-4-yl)methanamine] | 1000 to 10000 | 1000 to 10000 | 10000 to 40000 | 1000 to 10000 |
